Values quoted from earlier work, collected in US6346264B1, “Supplement for restoring growth hormone levels” (International Health Products and Services Ltd., priority 1999, dated 2002).
Read-outs that look alike come from different tables or passages of the source.

Legend:
[1] = 6 months, growth hormone deficient patients
[2] = 4 months, deficient adults
[3] = after six months of usage, without exercise
hGH release = details: low doses in the region of 200 mg (Matteini)
[4] = 202 patients, age 39-74, hGH injection

Compound: hGH: human growth hormone, medical name Somatotropin, produced in the anterior pituitary gland; available as injectable bio-synthetic product
- Insulin-like Growth Factor 1 (IGF-1) [1]: increase
- fat [1]: reduction
- lean body mass [1]: increase
- metabolic rate [1]: increased
- plasma cholesterol [1]: lowered
- increase in healing capacity [4]: 71%
- individuals describing improvement in duration of penile erection [4]: 62%
- individuals describing increase and improvement in sexual potency and frequency of sexual relations [4]: 75%
- individuals with improved energy levels [4]: 84%
- individuals with improved muscle strength [4]: 88%
- IGF-1 levels (high frequency-low dose injections): elevated
- IGF-1 levels [2]: normalized
- fat [2]: reduced
- muscle thickness [2]: increased
- renal plasma flow and glomerular filtration rates [2]: raised from subnormal levels to levels comparable for their age
- average increase in lean muscle mass [3]: 8%
- loss of fat [3]: 14.4%

Compound: N=C(N)NCCC[C@H](N)C(=O)O [arginine]
- hGH release (hGH release): can elevate hGH release
